Among the test systems are OVCAR-8 ovarian; NCI-H460 lung; MCF7 breast; UACC-257 melanoma; UO-31 renal; MDA-MB-435; MOLT-4 leukemia; SNB-75 CNS; EKVX NSCLC; 786-0 renal; HT29 colon; LOX IMVI melanoma; TK-10 renal; A549 NSCLC; OVCAR-3 ovarian; SK-OV-3 ovarian; HL-60(TB) leukemia; MDA-N.
Common to all, as to assay: growth of human tumour cells (NCI), 48 h

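Cells were grown in 96-well plates and exposed to each compound for 48 hours at five concentrations; endpoints were interpolated linearly between bracketing concentrations, or set to the highest concentration if not reached. Abbreviation: GI50, concentration required for 50% inhibition of growth. TGI denotes the concentration required for complete inhibition of growth.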

In the case of `Cc1ccc2c(c1)-c1c(C#N)c(N)nc(-c3ccccc3)c1CCS2(=O)=O`, the TGI in the assay on OVCAR-8 ovarian was > 95.5 µM; with NCI-H460 lung, > 100 µM; with MCF7 breast, > 100 µM; in the assay with UACC-257 melanoma, > 100 µM; in the assay on UO-31 renal it was 97 µM; in the assay with MDA-MB-435 it was > 36.5 µM. The TGI is > 100 µM in the assay with MOLT-4 leukemia; 59.2 µM in the assay with SNB-75 CNS; > 100 µM in the assay with EKVX NSCLC; > 100 µM in the assay on 786-0 renal; > 35 µM with HT29 colon; > 100 µM in the assay on LOX IMVI melanoma. In addition, the TGI with TK-10 renal is > 100 µM; with A549 NSCLC, > 100 µM; with OVCAR-3 ovarian it was > 100 µM; in the assay on SK-OV-3 ovarian it was 46 µM.
`COc1ccc(-c2cc(=O)c3cc4c(cc3[nH]2)OCO4)cc1`: the TGI in the assay with OVCAR-8 ovarian, in the assay on NCI-H460 lung, in the assay on UACC-257 melanoma, in the assay with HL-60(TB) leukemia, in the assay on UO-31 renal and in the assay on MOLT-4 leukemia was > 100 µM throughout. Besides, the TGI in the assay with SNB-75 CNS is > 100 µM; with EKVX NSCLC, 41.3 µM; in the assay on 786-0 renal it was > 100 µM; in the assay on HT29 colon it was > 100 µM; in the assay on LOX IMVI melanoma, > 100 µM; with TK-10 renal it was > 100 µM. In addition, the TGI in the assay with A549 NSCLC and in the assay on OVCAR-3 ovarian was > 100 µM throughout.
On to `CC(C)(C)OC(=O)N(CCNS(=O)(=O)c1cccc2cnccc12)CCC(=O)ON1C(=O)CCC1=O`, for which the TGI with OVCAR-8 ovarian, with NCI-H460 lung, in the assay on MCF7 breast, in the assay on UACC-257 melanoma, with UO-31 renal and in the assay on MDA-MB-435 was > 100 µM throughout. The TGI in the assay with MOLT-4 leukemia, with SNB-75 CNS, in the assay with EKVX NSCLC, in the assay on 786-0 renal, in the assay on HT29 colon and with LOX IMVI melanoma was > 100 µM each time. Further, the TGI in the assay on TK-10 renal, in the assay with A549 NSCLC, in the assay on OVCAR-3 ovarian and with SK-OV-3 ovarian was > 100 µM each time.
`CC(C)C/C=C/C1=NN(c2cccc(S(=O)(=O)O)c2)C2(C1)SCC(=O)N2c1nc2ccccc2s1` (centres undefined): the TGI is > 100 µM in the assay on OVCAR-8 ovarian; > 100 µM in the assay on NCI-H460 lung; > 100 µM in the assay on MCF7 breast; > 100 µM in the assay on UACC-257 melanoma; 82 µM in the assay with HL-60(TB) leukemia; > 100 µM in the assay on UO-31 renal. Moreover, the TGI with MDA-MB-435 was 84.6 µM; with MOLT-4 leukemia, > 100 µM; with SNB-75 CNS, > 100 µM; in the assay on EKVX NSCLC, > 100 µM; in the assay with 786-0 renal it was 46.3 µM; in the assay on HT29 colon, > 100 µM. Moreover, the TGI was 70 µM in the assay on LOX IMVI melanoma, > 100 µM in the assay on TK-10 renal and > 100 µM with A549 NSCLC.
Consider `C=CCNC(=O)NCCCC(NC(C)=O)C(=O)NCc1ccccc1` (centres undefined), for which the TGI in the assay on OVCAR-8 ovarian, in the assay with NCI-H460 lung, in the assay with UACC-257 melanoma, in the assay on HL-60(TB) leukemia, with UO-31 renal and in the assay with MOLT-4 leukemia was > 100 µM throughout. Besides, the TGI in the assay with SNB-75 CNS, in the assay with EKVX NSCLC, in the assay with 786-0 renal, in the assay with HT29 colon, with LOX IMVI melanoma and in the assay on TK-10 renal was > 100 µM each time. Further, the TGI in the assay with A549 NSCLC, with OVCAR-3 ovarian and in the assay on SK-OV-3 ovarian was > 100 µM throughout.
Take `O=C(CNC(=O)OCc1ccccc1)NCCCCC(NC(=O)OCc1ccccc1)C(=O)NC(CCCCNC(=O)CNC(=O)OCc1ccccc1)C(=O)OCc1ccccc1` (centres undefined): the TGI with OVCAR-8 ovarian, in the assay on NCI-H460 lung, in the assay with MCF7 breast, with UACC-257 melanoma, in the assay with HL-60(TB) leukemia and in the assay with UO-31 renal was > 62.5 µM each time. The TGI with MDA-MB-435, in the assay with MOLT-4 leukemia, in the assay on SNB-75 CNS, in the assay with 786-0 renal, in the assay with HT29 colon and with LOX IMVI melanoma was > 62.5 µM each time. For the same molecule, the TGI in the assay with TK-10 renal, in the assay on A549 NSCLC and in the assay on OVCAR-3 ovarian was > 62.5 µM in each case.
Consider `O=C1CC(C(=O)N2CCCCC2)n2c(=O)n(-c3ccccc3)c(=O)n2C1` (centres undefined), for which the TGI in the assay with OVCAR-8 ovarian, with NCI-H460 lung, in the assay on MCF7 breast, in the assay on UACC-257 melanoma, with MDA-N and with UO-31 renal was > 100 µM each time. The TGI in the assay with SNB-75 CNS, with EKVX NSCLC, with 786-0 renal, with HT29 colon, in the assay on LOX IMVI melanoma and with TK-10 renal was > 100 µM in each case. In addition, the TGI with A549 NSCLC, in the assay on OVCAR-3 ovarian and with SK-OV-3 ovarian was > 100 µM each time.
On to `CCOc1cc2c(cc1O)/C(=N/NS(=O)(=O)c1ccc(C)cc1)C[C@@H]1[C@@H]2CC[C@]2(C)[C@@H](O)CC[C@@H]12`, for which the TGI in the assay on OVCAR-8 ovarian, in the assay on NCI-H460 lung, with MCF7 breast, in the assay on UACC-257 melanoma, with UO-31 renal and with MDA-MB-435 was > 100 µM throughout. The TGI in the assay with MOLT-4 leukemia was 7.04 µM; in the assay with SNB-75 CNS, 67.7 µM; in the assay on EKVX NSCLC, > 100 µM; in the assay on 786-0 renal, > 100 µM; with HT29 colon, > 100 µM; with LOX IMVI melanoma, > 100 µM. The TGI with TK-10 renal, in the assay on A549 NSCLC, with OVCAR-3 ovarian and with SK-OV-3 ovarian was > 100 µM each time. For the same molecule, the GI50 with MDA-MB-435 was 0.917 µM; in the assay on OVCAR-3 ovarian it was 3.18 µM.

For the origin of these results see PubChem BioAssay (NCI).
